For 16 compounds, IC50 results are on record in patent US10023591B2, “Heterocyclic derivatives and use thereof” (C&C RESEARCH LABORATORIES, priority 2014, dated 2018).

The subject of one experiment is STAT1. Description: STAT1 reporter gene assay (luciferase), U2OS stable cell line pGL4-STAT1-TA-luc, IFN-γ stimulation. To be noted: Homo sapiens, IFN-γ 50 ng/mL, 8 hours, read-out: IC50 (μM) pSTAT1. The format is cell-based, human. A digest of the protocol: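 U2OS cells stably carrying a STAT1-driven luciferase reporter were treated with serially diluted compounds plus IFN-γ (50 ng/mL final) for 8 h at 37 °C in 10% FBS medium. Luciferase read after lysis; parallel plate assessed for cytotoxicity by CellTiter-Glo.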
For orientation: In a reporter assay the amount or activity of a reporter protein is the signal.

In the next experiment the test system is STAT3. Description: STAT3 reporter gene assay (luciferase), LNCaP stable cell line pSTAT3-TA-luc, IL-6 stimulation. The format is cell-based, human. To be noted: Homo sapiens. A digest of the protocol: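 LNCaP cells stably carrying pSTAT3-TA-luc were plated 24 h in 3% DCC-FBS medium, then given compound followed by IL-6 (10 ng/mL final) for 24 h at 37 °C. Luciferase was read from lysates, with CellTiter-Glo viability on a duplicate plate. Stimulated 0.1% DMSO wells served as uninhibited control.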

For experiment [1], the system named is NCI-N87 stomach cancer cell line. Description: Cell growth inhibition assay, NCI-N87 (CellTiter-Glo). To be noted: Homo sapiens; NCI-N87, 5,000 cells/well, 96 hours. The format is cell-based. The protocol: The inhibitory effects of the compounds of the present invention against the growth of cancer cells were evaluated as shown below. The cancer cell lines including prostate cancer cell lines (LNCaP, DU-145), stomach cancer cell line (NCI-N87), and breast cancer cell lines (MDA-MB-468) were cultured under the protocol provided by each supplier. A medium supplemented with 10 ng/mL of IL-6 was used for LNCaP, a prostate cancer cell line, when treated with a drug. Each type of cells to be used in experiments was sub-cultured in a 96-well plate by counting the exact number of cells using Tali™ Image-based Cytometer (Life Technologies). In a 96-well plate, DU-145 was employed with 3,000 cells/well; NCI-N87 was employed with 5,000 cells/well; and LNCaP and MDA-MB-468 were employed with 10,000 cells/well. The cells were treated with the compounds listed in Examples which were diluted in various concentrations. Upon completion of the compounds treatment, LNCaP, DU-145, NCI-N87 cells were cultured at 37° C. under 5% CO2 for 96 hours, and MDA-MB-468 cells were cultured at 37° C. in air for 96 hours. Subsequently, the cells were observed under microscope and drug precipitation and particular findings were investigated and recorded. And then, the 96-well plate was placed at room temperature for 30 minutes, added with 20 pt/well of CellTiter-Glo solution (Cat No. G7573, Promega) and shaken for 10 minutes, followed by being subjected to the measurement using PHERAstar™ microplate reader (BMG LABTECH) according to the supplier's general luminometer protocol. Wells where only culture liquid added without cell plating were used as a negative control, whereas wells where culture liquid containing 0.1% DMSO instead of the compounds listed in Examples were used as a positive control.
(In general: Cellular ATP, detected with luciferase, serves as a proxy for viable cell number.)

For `O=C(Nc1cc(Cl)nc(Oc2ccc(Cl)cc2)c1)c1cc2cc(C3CCCCS3(=O)=O)ccc2s1` (stereo not drawn) [Example 74, N-(2-chloro-6-(4-chlorophenoxy)pyridin-4-yl)-5-(1,1-dioxidotetrahydro-2H-thiopyran-2-yl)benzo[b]thiophene-2-carboxamide], the IC50 was greater than 50 µM in the experiment on STAT1, 0.12 µM with STAT3 and 0.61 µM in experiment [1].
For the compound `CC(C)(c1ccc2sc(C(=O)Nc3cc(F)nc(Oc4ccc(Cl)cc4)c3)cc2c1)S(C)(=O)=O` [Example 77, N-(2-(4-chlorophenoxy)-6-fluoropyridin-4-yl)-5-(2-(methylsulfonyl)propan-2-yl)benzo[b]thiophene-2-carboxamide], the IC50 is greater than 50 µM in the experiment with STAT1, 0.1 µM with STAT3 and 0.052 µM in experiment [1].
Consider `CC(C)(c1ccc2sc(C(=O)Nc3cc(Cl)nc(OC4CC5C=CC4C5)c3)cc2c1)S(C)(=O)=O` (stereo not drawn) [Example 78, N-(2-(bicyclo[2.2.1]hept-5-en-2-yloxy)-6-chloropyridin-4-yl)-5-(2-(methylsulfonyl)propan-2-yl)benzo[b]thiophene-2-carboxamide], for which the IC50 in the experiment with STAT1 was greater than 50 µM; with STAT3, 0.05 µM; in experiment [1] it was 0.2 µM.
With `CC(C)(c1ccc2sc(C(=O)N3CCOc4c(Cl)cc(Oc5ccc(Cl)cc5)cc43)cc2c1)S(C)(=O)=O` [Example 96, (8-chloro-6-(4-chlorophenoxy)-2,3-dihydro-4H-benzo[b][1,4]oxazin-4-yl)(5-(2-(methylsulfonyl)propan-2-yl)benzo[b]thiophen-2-yl)methanone], the IC50 is greater than 50 µM in the experiment with STAT1, 0.19 µM in the experiment with STAT3 and 1.5 µM in experiment [1].
In the same order, the values of `CC(C)(c1ccc2sc(C(=O)Nc3cc(Cl)nc(OC4CC=C(Cl)CC4)c3)cc2c1)S(C)(=O)=O` (stereo not drawn) [Example 101, N-(2-chloro-6-((4-chlorocyclohex-3-en-1-yl)oxy)pyridin-4-yl)-5-(2-(methylsulfonyl)propan-2-yl)benzo[b]thiophene-2-carboxamide] are greater than 50 µM, 0.0093 µM and 0.068 µM.
On to `CC(C)(c1ccc2sc(C(=N)Nc3cc(Cl)cc(Oc4ccc(Cl)cc4)c3)cc2c1)S(C)(=O)=O` [Example 103, N-(3-chloro-5-(4-chlorophenoxy)phenyl)-5-(2-(methylsulfonyl)propan-2-yl)benzo[b]thiophene-2-carboximidamide 2,2,2-trifluoroacetate], for which the IC50 in the experiment on STAT1 was greater than 50 µM; in the experiment on STAT3, 0.18 µM; in experiment [1], 1.3 µM.
Regarding `CC(C)(c1ccc2sc(C(=O)Nc3cc(Cl)nc(N4CCN5CCCC5C4)c3)cc2c1)S(C)(=O)=O` (stereo not drawn) [Example 104, N-(2-chloro-6-(hexahydropyrrolo[1,2-a]pyrazin-2(1H)-yl)pyridin-4-yl)-5-(2-(methylsulfonyl)propan-2-yl)benzo[b]thiophene-2-carboxamide], the IC50 in the experiment on STAT1 is 8.7 µM; in the experiment with STAT3, 1.4 µM; in experiment [1] it was 1.7 µM.
For `CC(C)(C)C1CCN(c2cc(NC(=O)c3cc4cc(C(C)(C)S(C)(=O)=O)ccc4s3)cc(Cl)n2)CC1` [Example 105, N-(2-(4-(tert-butyl)piperidin-1-yl)-6-chloropyridin-4-yl)-5-(2-(methylsulfonyl)propan-2-yl)benzo[b]thiophene-2-carboxamide], the IC50 in the experiment on STAT1 was greater than 50 µM; with STAT3, 0.049 µM; in experiment [1] it was 0.087 µM.
In the case of `CC(C)(c1ccc2sc(C(=O)Nc3cc(Cl)nc(N4CCN5CCCCC5C4)c3)cc2c1)S(C)(=O)=O` (stereo not drawn) [Example 106, N-(2-chloro-6-(octahydro-2H-pyrido[1,2-a]pyrazin-2-yl)pyridin-4-yl)-5-(2-(methylsulfonyl)propan-2-yl)benzo[b]thiophene-2-carboxamide], the IC50 is 8.5 µM in the experiment with STAT1, 0.43 µM in the experiment on STAT3 and 1.8 µM in experiment [1].
The like results for `CCN1CCC2(CCN(c3cc(NC(=O)c4cc5cc(C(C)(C)S(C)(=O)=O)ccc5s4)cc(Cl)n3)C2)C1` (stereo not drawn) [Example 107, N-(2-chloro-6-(7-ethyl-2,7-diazaspiro[4.4]nonan-2-yl)pyridin-4-yl)-5-(2-(methylsulfonyl)propan-2-yl)benzo[b]thiophene-2-carboxamide] were, in that order, 33.5 µM, greater than 10 µM and 5.5 µM.
`CC(C)(c1ccc2sc(C(=O)Nc3cc(Cl)nc(N4CCC5CCCCC5C4)c3)cc2c1)S(C)(=O)=O` (stereo not drawn) [Example 108, N-(2-chloro-6-(octahydroisoquinolin-2(1H)-yl)pyridin-4-yl)-5-(2-(methylsulfonyl)propan-2-yl)benzo[b]thiophene-2-carboxamide]: the IC50 with STAT1 was greater than 50 µM; with STAT3, 0.085 µM; in experiment [1], 0.13 µM.
Regarding `Cn1nccc1Oc1cc(NC(=O)c2cc3cc(C(C)(C)S(C)(=O)=O)ccc3s2)cc(Cl)n1` [Example 110, N-(2-chloro-6-((1-methyl-1H-pyrazol-5-yl)oxy)pyridin-4-yl)-5-(2-(methylsulfonyl)propan-2-yl)benzo[b]thiophene-2-carboxamide], the IC50 stood at 44.8 µM in the experiment with STAT1, 0.53 µM in the experiment with STAT3 and 1.2 µM in experiment [1].
As for `Cc1nn(C)c(C)c1Oc1cc(NC(=O)c2cc3cc(C(C)(C)S(C)(=O)=O)ccc3s2)cc(Cl)n1` [Example 111, N-(2-chloro-6-((1,3,5-trimethyl-1H-pyrazol-4-yl)oxy)pyridin-4-yl)-5-(2-(methylsulfonyl)propan-2-yl)benzo[b]thiophene-2-carboxamide], the IC50 with STAT1 was greater than 50 µM; in the experiment with STAT3, 1.3 µM; in experiment [1], 2.4 µM.
With `Cn1cc(Oc2cc(NC(=O)c3cc4cc(C(C)(C)S(C)(=O)=O)ccc4s3)cc(Cl)n2)cn1` [Example 112, N-(2-chloro-6-((1-methyl-1H-pyrazol-4-yl)oxy)pyridin-4-yl)-5-(2-(methylsulfonyl)propan-2-yl)benzo[b]thiophene-2-carboxamide], the results for the IC50 (with STAT1; in the experiment with STAT3; in experiment [1]) were 18.9 µM, 0.32 µM and 1 µM, respectively.
In the case of `Cc1noc(C)c1Oc1cc(NC(=O)c2cc3cc(C(C)(C)S(C)(=O)=O)ccc3s2)cc(Cl)n1` [Example 113, N-(2-chloro-6-((3,5-dimethylisoxazol-4-yl)oxy)pyridin-4-yl)-5-(2-(methylsulfonyl)propan-2-yl)benzo[b]thiophene-2-carboxamide], the results for the IC50 (with STAT1; in the experiment on STAT3; in experiment [1]) were greater than 50 µM, 0.18 µM and 0.27 µM, respectively.
Consider `Cc1cc(Oc2cc(NC(=O)c3cc4cc(C(C)(C)S(C)(=O)=O)ccc4s3)cc(Cl)n2)cs1` [Example 114, N-(2-chloro-6-((5-methylthiophen-3-yl)oxy)pyridin-4-yl)-5-(2-(methylsulfonyl)propan-2-yl)benzo[b]thiophene-2-carboxamide], for which the IC50 in the experiment with STAT1 was greater than 50 µM; in the experiment on STAT3, 0.063 µM; in experiment [1] it was 0.13 µM.

The term IC50 denotes the midpoint of a concentration-inhibition curve.
